Results on 24 compounds are retold here after patent publication US6479531B1, “Gastrin and cholecystokinin receptor ligands” (James Black Foundation Limited, priority 1998, dated 2002).

Where a name gives a salt, the structure may show the parent alone.

One experiment deals with T1, gastrin receptor (Rattus norvegicus, UniProt P30553).
T1 construct: The stomach was excised and flushed with ca. 1 ml of unbuffered physiological saline solution; from tissue; host or cells: isolated whole stomach of immature rats (ca. 21 days old)
T1 sequence (P30553 1-452): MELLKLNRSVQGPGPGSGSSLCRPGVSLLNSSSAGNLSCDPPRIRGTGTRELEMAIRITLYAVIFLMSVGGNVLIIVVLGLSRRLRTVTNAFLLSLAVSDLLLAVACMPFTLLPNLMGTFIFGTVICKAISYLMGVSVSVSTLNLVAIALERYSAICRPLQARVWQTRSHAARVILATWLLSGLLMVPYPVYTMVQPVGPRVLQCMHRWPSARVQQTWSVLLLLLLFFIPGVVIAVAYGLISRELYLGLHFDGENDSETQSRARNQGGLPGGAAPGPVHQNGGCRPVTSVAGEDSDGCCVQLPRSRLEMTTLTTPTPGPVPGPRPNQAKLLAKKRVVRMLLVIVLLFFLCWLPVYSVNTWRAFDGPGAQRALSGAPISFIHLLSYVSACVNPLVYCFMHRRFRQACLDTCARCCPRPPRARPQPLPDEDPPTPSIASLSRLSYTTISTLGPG
In words: gastrin antagonist activity in immature rat stomach assay (pentagastrin dose-response, acid secretion). Conditions: isolated immature rat stomach, cumulative pentagastrin dose-response curves, read-out: Gastrin pKb (converted). In a few lines:
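Gastrin antagonism was measured as the effect on cumulative pentagastrin dose-response curves of acid output, recorded by pH electrode in the perfusate of an excised immature rat stomach (ca. 21 days old). Test compound was placed in the serosal bath (37°, 3×10^−8 M 5-methylfurmethide) 60 min before pentagastrin.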

Another experiment has as its target T2, CCKB receptor (Mus musculus, UniProt P56481).
T2 construct: The whole brains from male mice (CD1 22-25 g; Charles River) were removed; from tissue; host or cells: cerebral cortex membranes of male CD1 mice
T2 sequence (P56481 1-453): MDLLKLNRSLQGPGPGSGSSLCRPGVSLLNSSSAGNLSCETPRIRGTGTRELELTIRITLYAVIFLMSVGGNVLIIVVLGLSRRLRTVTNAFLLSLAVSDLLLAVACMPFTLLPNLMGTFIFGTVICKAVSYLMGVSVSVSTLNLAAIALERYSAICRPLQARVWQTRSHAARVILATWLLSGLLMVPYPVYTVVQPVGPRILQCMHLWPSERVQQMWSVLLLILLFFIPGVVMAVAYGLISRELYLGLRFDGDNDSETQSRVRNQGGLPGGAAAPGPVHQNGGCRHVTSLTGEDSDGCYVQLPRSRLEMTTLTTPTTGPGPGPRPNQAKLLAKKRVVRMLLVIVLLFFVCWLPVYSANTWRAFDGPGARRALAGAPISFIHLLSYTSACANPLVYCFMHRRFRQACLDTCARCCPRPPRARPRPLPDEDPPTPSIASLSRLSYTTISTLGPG
Put plainly: CCKB receptor radioligand binding assay in mouse cortical membranes. Conditions: [125I]-CCK8(S) 200 pM, 150 min at 21±3°, read-out: CCKB pKi (converted). Put shortly: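 Bound radioactivity was gamma-counted after rapid GF/B filtration and cold 50 mM Tris-HCl (pH 7.4) washes. The tissue was cerebral cortex from male CD1 mice, prepared as twice-centrifuged membranes in pH 7.2 HEPES/NaCl/KCl/MgCl2/EDTA buffer with bacitracin at 20 mg/ml original wet weight.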

Turning to `Cc1ccccc1-c1nc(C(=O)Nc2cccc(C(=O)O)c2)c(CCC23CC4CC(CC(C4)C2)C3)n1C` [Example 73, 3-{[5-(2-Adamantan-1-yl-ethyl)-1-methyl-2-o-tolyl-1H-imidazole-4-carbonyl]-amino}-benzoic Acid], the Kb on gastrin receptor is 6.61 nM. Further, the Ki at CCKB receptor is 417 nM.
Consider `Cc1ccccc1-c1nc(CCC23CC4CC(CC(C4)C2)C3)c(C(=O)Nc2cccc(C(=O)O)c2)n1C` [Example 74, 3-{[5-(2-Adamantan-1-yl-ethyl)-3-methyl-2-o-tolyl-3H-imidazole-4-carbonyl]-amino}-benzoic Acid], for which the Kb on gastrin receptor is 25.7 nM. The Ki at CCKB receptor is 324 nM.
Regarding `Cc1ccccc1-c1nc(NC(=O)Nc2cccc(C(=O)O)c2)c(CCC23CC4CC(CC(C4)C2)C3)[nH]1` [Example 75, 3-{3-[5-(2-Adamantan-1-yl-ethyl)-2-o-tolyl-1H-imidazol-4-yl]-ureido}-benzoic Acid], on gastrin receptor, the Kb was 263 nM. Also, the Ki at CCKB receptor is 200 nM.
As to `CC(C)c1nc(C(=O)Nc2cccc(C(=O)O)c2)c(CCC23CC4CC(CC(C4)C2)C3)[nH]1` [Example 78, 3-{[5-(2-Adamantan-1-yl-ethyl)-2-isopropyl-1H-imidazole-4-carbonyl]-amino}-benzoic Acid], the Kb at gastrin receptor is 20.9 nM. At CCKB receptor, the Ki is 186 nM.
Consider `O=C(O)c1cccc(NC(=O)c2[nH]c(C3CCCCCC3)nc2CCC23CC4CC(CC(C4)C2)C3)c1` [Example 79, 3-{[5-(2-Adamantan-1-yl-ethyl)-2-cycloheptyl-1H-imidazole-4-carbonyl]-amino}-benzoic Acid], for which, on gastrin receptor, the Kb was 5.37 nM. Besides, the Ki at CCKB receptor is 11.7 nM.
As to `CC(C)(C)c1nc(C(=O)Nc2cccc(C(=O)O)c2)c(CCC23CC4CC(CC(C4)C2)C3)[nH]1` [Example 80, 3-{[5-(2-Adamantan-1-yl-ethyl)-2-tert-butyl-1H-imidazole-4-carbonyl]-amino}-benzoic Acid], the Kb on gastrin receptor was 11 nM. Further, the Ki at CCKB receptor is 67.6 nM.
In the same order, the values of `CCCc1nc(C(=O)Nc2cccc(C(=O)O)c2)c(CCC23CC4CC(CC(C4)C2)C3)[nH]1` [Example 81, 3-{[5-(2-Adamantan-1-yl-ethyl)-2-propyl-1H-imidazole-4-carbonyl]-amino}-benzoic Acid] are 52.5 nM and 269 nM.
Turning to `O=C(O)Cc1cccc(NC(=O)c2nc(C3CCCCC3)[nH]c2CCC23CC4CC(CC(C4)C2)C3)c1` [Example 84, (3-{[5-(2-Adamantan-1-yl-ethyl)-2-cyclohexyl-1H-imidazole-4-carbonyl]-amino}-phenyl)-acetic Acid], on gastrin receptor, the Kb was 162 nM. The Ki on CCKB receptor is 1.02 nM.
On to `O=C(O)c1cccc(NC(=O)c2nc(CC34CC5CC(CC(C5)C3)C4)[nH]c2CCc2ccccc2)c1` [Example 86, 3-[(2-Adamantan-1-ylmethyl-5-phenethyl-1H-imidazole-4-carbonyl)-amino]-benzoic Acid], for which, at gastrin receptor, the Kb is 741 nM. On CCKB receptor, the Ki was 1020 nM.
`Cc1ccccc1-c1nc(C(=O)Nc2cccc(C(=O)O)c2)c(CCc2ccccc2)[nH]1` [Example 87, 3-[(5-Phenethyl-2-o-tolyl-1H-imidazole-4-carbonyl)-amino]-benzoic Acid]: the Kb on gastrin receptor is 1170 nM. The Ki at CCKB receptor was 2690 nM.
In the same order, the values of `Cc1ccccc1-c1nc(C(=O)Nc2cccc(C(=O)O)c2)c(CCC2CCCCC2)[nH]1` [Example 89, 3-{[5-(2-Cyclohexyl-ethyl)-2-o-tolyl-1H-imidazole-4-carbonyl]-amino}-benzoic Acid] are 20 nM and 676 nM.
Regarding `Cc1ccccc1-c1nc(NC(=O)c2cccc(C(=O)O)c2)c(CCC23CC4CC(CC(C4)C2)C3)[nH]1` [Example 92, N-[5-(2-Adamantan-1-yl-ethyl)-2-o-tolyl-1H-imidazol-4-yl]-isophthalamic Acid], the Kb at gastrin receptor was 158 nM. On CCKB receptor, the Ki was 1020 nM.
Regarding `Cc1cc(F)ccc1-c1nc(C(=O)Nc2cccc(C(=O)O)c2)c(CCC23CC4CC(CC(C4)C2)C3)[nH]1` [Example 96, 3-{[5-(2-Adamantan-1-yl-ethyl)-2-(4-fluoro-2-methyl-phenyl)-1H-imidazole-4-carbonyl]-amino}-benzoic Acid], at gastrin receptor, the Kb is 12.3 nM. The Ki at CCKB receptor was 166 nM.
In the same order, the values of `Cc1ccccc1-c1nc(C(=O)Nc2cccc(CCC(=O)O)c2)c(CCC23CC4CC(CC(C4)C2)C3)[nH]1` [Example 97, 3-(3-{[5-(2-Adamantan-1-yl-ethyl)-2-o-tolyl-1H-imidazole-4-carbonyl]-amino}-phenyl)-propionic Acid Trifluoroacetic Acid Salt] are 501 nM and 6.76 nM.
Turning to `Cc1ccccc1-c1nc(C(=O)NCC(=O)Nc2cccc(C(=O)O)c2)c(CCC23CC4CC(CC(C4)C2)C3)[nH]1` [Example 103], the Kb at gastrin receptor was 661 nM. Further, the Ki on CCKB receptor is 263 nM.
Turning to `Cc1ccccc1-c1nc(C(=O)Nc2cccc(C(=O)O)c2C)c(CCC23CC4CC(CC(C4)C2)C3)[nH]1` [Example 104, 3-{[5-(2-Adamantan-1-yl-ethyl)-2-o-tolyl-1H-imidazole-4-carbonyl]-amino}-2-methyl-benzoic Acid], the Kb at gastrin receptor is 42.7 nM. Further, the Ki on CCKB receptor is 129 nM.
Consider `Cc1ccccc1-c1nc(C(=O)Nc2ccc(F)c(C(=O)O)c2)c(CCC23CC4CC(CC(C4)C2)C3)[nH]1` [Example 105, 5-{[5-(2-Adamantan-1-yl-ethyl)-2-o-tolyl-1H-imidazole-4-carbonyl]-amino}-2-fluoro-benzoic Acid], for which the Kb at gastrin receptor was 87.1 nM. For the same compound, the Ki at CCKB receptor was 46.8 nM.
The matching figures for `Cc1ccc(NC(=O)c2nc(-c3ccccc3C)[nH]c2CCC23CC4CC(CC(C4)C2)C3)cc1C(=O)O` [Example 106, 5-{[5-(2-Adamantan-1-yl-ethyl)-2-o-tolyl-1H-imidazole-4-carbonyl]-amino}-2-methyl-benzoic Acid]: 6.31 nM and 5.89 nM.
Take `Cc1nc(C(=O)Nc2cccc(C(=O)O)c2)c(CCC23CC4CC(CC(C4)C2)C3)[nH]1` [Example 108, 3-{[5-(2-Adamantan-1-yl-ethyl)-2-methyl-1H-imidazole-4-carbonyl]-amino}-benzoic Acid]: on gastrin receptor, the Kb is 1550 nM. On CCKB receptor, the Ki is 2340 nM.
In the same order, the values of `O=C(O)c1cccc(NC(=O)c2nc(-c3cnc[nH]3)[nH]c2CCC23CC4CC(CC(C4)C2)C3)c1` [Example 110, 3-{[5-(2-Adamantan-1-yl-ethyl)-1H-3′H-[2,4′]biimidazolyl-4-carbonyl]-amino}-benzoic Acid] are 1050 nM and 339 nM.
In the case of `CC(C)(C)Cc1nc(C(=O)Nc2cccc(C(=O)O)c2)c(CCC23CC4CC(CC(C4)C2)C3)[nH]1` [Example 111, 3-{[5-(2-Adamantan-1-yl-ethyl)-2-(2,2-dimethyl-propyl)-1H-imidazole-4-carbonyl]-amino}-benzoic Acid], on gastrin receptor, the Kb is 41.7 nM. The Ki at CCKB receptor was 91.2 nM.
For `CCC(CC)c1nc(C(=O)Nc2cccc(C(=O)O)c2)c(CCC23CC4CC(CC(C4)C2)C3)[nH]1` [Example 112, 3-{[5-(2-Adamantan-1-yl-ethyl)-2-(1-ethyl-propyl)-1H-imidazole-4-carbonyl]-amino}-benzoic Acid], the Kb on gastrin receptor is 9.33 nM. Further, the Ki at CCKB receptor was 45.7 nM.
As to `CCC(CC)c1nc(C(=O)Nc2ccc(C)c(C(=O)O)c2)c(CCC23CC4CC(CC(C4)C2)C3)[nH]1` [Example 113, 5{-[5-(2-Adamantan-1-yl-ethyl)-2-(1-ethyl-propyl)-1H-imidazole-4-carbonyl]-amino}-2-methyl-benzoic Acid], the Kb at gastrin receptor is 5.5 nM. For the same compound, the Ki on CCKB receptor was 7.24 nM.
Consider `O=C(O)c1cccc(NC(=O)c2sc(C3CCCCC3)nc2CCC23CC4CC(CC(C4)C2)C3)c1` [Example 122, 3-{[4-(2-Adamantan-1-yl-ethyl)-2-cyclohexyl-thiazole-5-carbonyl]-amino}-benzoic Acid], for which, on gastrin receptor, the Kb is 3020 nM. Also, the Ki at CCKB receptor was 1020 nM.
